Calls of active or inactive are those of the source.
Assays:
Format in all cases: functional, organism-based
Secale cereale [1] = experiment: Herbicidal activity against feral Secale cereale (rye) treated as spring post-emergence application at winter wheat-growing season in presence of urea ammonium nitrate
Secale cereale [2] = experiment: Herbicidal activity against feral Secale cereale (rye) treated as fall post-emergence application at winter wheat-growing season in presence of urea ammonium nitrate
Aegilops cylindrica [3] = experiment: Herbicidal activity against Aegilops cylindrica treated as spring post-emergence application at winter wheat-growing season relative to urea ammonium nitrate
Aegilops cylindrica [4] = experiment: Herbicidal activity against Aegilops cylindrica treated as fall post-emergence application at winter wheat-growing season relative to urea ammonium nitrate

Measured: Activity

COCc1cnc(C2=NC(C)(C(C)C)C(=O)N2)c(C(=O)O)c1 (centres undefined)
active: all assays above
